Assay results published in publication PMC7461568, “Novel Cyclic Lipopeptide Antibiotics: Effects of Acyl Chain Length and Position” (International Journal of Molecular Sciences, 2020).
Converted amounts (≈) assume the structure as drawn. Where a SMILES comes first, the peptide text is derived from it. [ ]: non-standard residue; d: D form. The star is where a group is joined. 2Nal = N[C@@H](Cc1ccc2ccccc2c1)C(=O)O; Octanoyl = CCCCCCCC(=O)*; Dab = NCC[C@H](N)C(=O)O; AEEA = NCCOCCOCC(=O)O

Experiments:
[1] = system: human erythrocytes; assay: Hemolysis of red blood cells; details: 1 h; for %H, percent hemolytic activity against red blood cells at 150 μM: human erythrocytes, 0.5% v/v RBC suspension in PBS, peptide 150 μM, 37 °C, absorbance 414 nm, melittin positive control, triplicate
Procedure: The hemolysis experiments were performed according to the protocol described in Reference. The peptides were tested at concentrations from 2.35–150 μM, using melittin as positive control and PBS as negative control. One premade tablet of PBS was dissolved in 200 mL Milli-Q water. The solution was kept in the refrigerator for a maximum of two days. The day before the test, the positive control wells of the 96 well polypropylene plates were precoated with 150 μL of melittin 5 μM solution in PBS. The solution was prepared in Protein LoBind Eppendorf tubes. The day of the test, the solution was discarded and the wells were washed three times with 150 μL PBS. A melittin 2.50 μM solution in PBS was prepared in Protein LoBind Eppendorf tubes—500 μL for every plate to be used. The mass of the peptide needed to reach a final concentration of 300 μM (to start testing down from 150 μM) was calculated, since a volume of 500 μL was desirable. […] The peptides were dissolved in PBS and tested in triplicate.
In a 96 well polypropylene plate, 150 μL of peptide solution was transferred to three wells in Row A. Therefore, each plate could accommodate up to four peptides. A 2-fold serial dilution of the peptides was obtained by transferring 75 μL of the solutions from Row A to the corresponding wells in Row B, mixing a couple of times. From Row B, 75 μL was transferred to Row C and so on until Row G, where 75 μL was discarded after mixing. Volumes of 75 μL melittin (2.50 μM) was transferred to the positive control wells in H1–H6. Preparation of the RBC suspension: 1 mL of whole blood was transferred to a cryotube with 3 mL of PBS, and then it was gently mixed and centrifuged for 8 min at 3000 rpm. The supernatant was discarded, and the process was repeated twice; with 4 mL at 3000 rpm and 4 mL at 4000 rpm, respectively. From the final RBC pellet, 40 μL was transferred to 8 mL of PBS (multiplied by the number of test plates needed). This corresponded to a 0.5% v/v RBC suspension. The suspension was gently mixed and transferred into a CAPPOrigami reservoir. Using a multichannel pipette, 75 μL of the suspension was transferred into each well and mixed in the direction of increasing concentration. The control wells were mixed separately. The plates were covered with BioradMicroseal foil and incubated at 37 °C for 1 h. The plates (maximum two) were centrifuged for 10 min at 4000 rpm, followed by transferring of supernatant (60 μL) from each well into the corresponding wells in a clear ELISA plate. The absorbance (A) of each well was measured at λ = 414 nm using the software program Softmax(R) Pro.

[2] = system: E. coli ATCC 25922; format: cell-based, Escherichia coli; details: MHB-II, inoculum 5 × 10^5 CFU/mL, 37 °C, 18–24 h, visual read-out, triplicate
Procedure: In the original report on S3(B), MIC experiments were carried out by using non-cation-adjusted MHB-I media. To this, bovine serum albumin (BSA) and acetic acid were added. The rationale for choosing a medium without cations is that cation-adjusted media (MHB-II) in some cases causes substantial inhibition of the activity of cationic peptides. Furthermore, some peptides are at risk of precipitation when diluted into MHB medium, which can be avoided via the addition of BSA and acetic acid. However, the use of MHB-II is favorable to imitate the in vivo conditions as much as possible. Both media were tested with and without the addition of BSA and acetic acid by trial and error. The use of pure MHB-II was compatible with S3(B) and its fatty acid analogues, and therefore was chosen for the MIC determinations. Noticeably, MHB-I with BSA and acetic acid led to precipitation of lipopeptides in the present work.
Cation-adjusted Mueller-Hinton broth (MHB-II) media (BD BBLTM Beef extract powder, BD BactoTMCasamino acids, and DIFCO soluble starch was from Becton, Dickinson and Company©, Franklin Lakes, NJ, USA). MHB media supplemented with 0.2% BSA was from Sigma Aldrich (St. Louis, MO, USA) and 0.01% acetic acid from VWR®. The 96 well plate cell-culture cluster, round-bottom, polypropylene plates, and V-shaped 96 well polypropylene plates were purchased from Corning® Inc., Costar®, Corning, NY, USA. Microseal® film was obtained from Bio-Rad Laboratories, Inc., Hercules, CA, USA. A VersaMaxTM Tunable Microplate Reader (Molecular Devices LLC, Sunnyvale, CA, USA) was used and the data were evaluated on a Softmax® Pro (Molecular Devices LLC).
The MIC experiments were performed according to a protocol adapted from Wiegand et al., with minor modifications. The MICs were determined in triplicate. The peptides were dissolved in Milli-Q water to produce 10 mg/mL stock solutions in small glass containers. The bacterial isolates to be tested were streaked onto agar plates to obtain single colonies, and the plates were incubated at 37 °C for 18–24 h. The strains tested were S. aureus ATCC 29213, P. aeruginosa ATCC 27853, E. coli ATCC 25922, A. baumannii ATCC 19606, and K. pneumonia ATCC 13883. Test compounds were prepared in 2-fold dilutions in 50 μL volumes in polypropylene microtiter plates. Bacterial cultures grown to OD600 = 0.1–0.4 were diluted to a desired OD600 of 0.001–0.002 corresponding to 1 × 10^6 CFU/mL. Next, 50 μL bacterial suspension was added to the microtiter plates, giving a final bacterial inoculum of 5 × 10^5 CFU/mL per well. The plates were incubated at 37 °C for 18–24 h. […] The MIC values were visually evaluated, and the MIC was set to the lowest concentration […] based on triplicate measurements. […]

CCCCCCCC(=O)NCC[C@@H]1NC(=O)[C@H](CCN)NC(=O)[C@H](CCCNC(=N)N)NC(=O)[C@H](Cc2ccc3ccccc3c2)NC(=O)[C@H](CCN)NC(=O)[C@H](CC(N)=O)NC(=O)[C@H](CCN)NC(=O)[C@H](Cc2ccc3ccccc3c2)NC(=O)COCCOCCNC1=O [(C8)^5] (cyclo([Dab][2Nal]R[Dab][Dab](Octanoyl)[AEEA][2Nal][Dab]N))
%H, percent hemolytic activity against red blood cells at 150 μM [1]: 42% | %H, percent hemolytic activity against red blood cells at 150 μM ([1]; listed as (C8)^7): 56% | HD50 (hemolysis) ([1]; red cells of human): > 150 µM | Minimum inhibitory concentration, EC [2]: 16 µg/mL (≈ 12 µM)
